How the values were obtained:
Assay in all cases: relative viability (nuclei count vs DMSO), 5 days (fraction); higher = more cells survive
[1] = compound: CC(C)C[C@H](NC(=O)[C@H](Cc1ccccc1)NC(=O)c1cnccn1)B(O)O [Bortezomib] + CS(=O)(=O)N1CCN(Cc2cc3nc(-c4cccc5[nH]ncc45)nc(N4CCOCC4)c3s2)CC1 [Pictilisib] (partner 1 µM)
Procedure, shortened: (§1)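 Lung cancer cell lines in 1536-well plates were dosed by pin tool the day after seeding, either with one drug alone or with a fixed anchor-drug dose plus five library-drug doses (not always all listed) in √10 steps. After 5 days, cells were fixed and their nuclei stained in one step (final 0.05% Triton X-100, 1% formaldehyde, 1 ug/ml Hoechst), then counted on 4× images. Relative viability is the nuclei count in treated wells divided by that in vehicle wells. Values are medians of duplicate plates.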

[2] = compound: CC(C)C[C@H](NC(=O)[C@H](Cc1ccccc1)NC(=O)c1cnccn1)B(O)O [Bortezomib] + Nc1nc2[nH]cc(CCc3ccc(C(=O)N[C@@H](CCC(=O)O)C(=O)O)cc3)c2c(=O)[nH]1 [Pemetrexed] (partner 0.2 µM)
Procedure, shortened: as §1

[3] = compound: CC1=CC(=NN1)NC2=CC(=NC(=N2)/C=C/C3=CC=CC=C3)N4CCN(CC4)C + CCNC(=O)c1noc(-c2cc(C(C)C)c(O)cc2O)c1-c1ccc(CN2CCOCC2)cc1 [Luminespib] (partner 0.01 µM)
Procedure, shortened: as §1

[4] = compound: COC1=CC(c2cc3ccccc3[nH]2)=N/C1=C\c1[nH]c(C)cc1C [Obatoclax] + CCNC(=O)c1noc(-c2cc(C(C)C)c(O)cc2O)c1-c1ccc(CN2CCOCC2)cc1 [Luminespib] (partner 0.01 µM)
Procedure, shortened: as §1

Row | Cell Line | relative viability ([1]; first compound 0.0002 µM) | relative viability ([1]; first compound 0.000632 µM) | relative viability ([1]; first compound 0.002 µM) | relative viability ([1]; first compound 0.006325 µM) | relative viability ([1]; first compound 0.02 µM) | relative viability ([2]; first compound 0.0002 µM) | relative viability ([2]; first compound 0.000632 µM) | relative viability ([2]; first compound 0.002 µM) | relative viability ([2]; first compound 0.006325 µM) | relative viability ([2]; first compound 0.02 µM) | relative viability ([3]; first compound 0.08 µM) | relative viability ([3]; first compound 0.253 µM) | relative viability ([3]; first compound 0.8 µM) | relative viability ([3]; first compound 2.53 µM) | relative viability ([3]; first compound 8 µM) | relative viability ([4]; first compound 0.01 µM) | relative viability ([4]; first compound 0.03162 µM) | relative viability ([4]; first compound 0.1 µM) | relative viability ([4]; first compound 0.3162 µM) | relative viability ([4]; first compound 1 µM)
1 | HCC-366 | 0.119 | 0.12 | 0.117 | 0.166 | 0.0325 | 0.149 | 0.173 | 0.207 | 0.149 | 0.0543 | – | – | – | – | – | – | – | – | – | –
2 | HCC-827 | 0.772 | 0.956 | 0.984 | 0.82 | 0.235 | 0.265 | 0.254 | 0.219 | 0.234 | 0.247 | 0.577 | 0.673 | 0.587 | 0.441 | 0.236 | 0.676 | 0.575 | 0.6 | 0.706 | 0.76
3 | HOP-62 | 0.752 | 0.667 | 0.748 | 0.333 | 0.0568 | 0.257 | 0.321 | 0.445 | 0.223 | 0.0603 | 0.953 | 0.966 | 0.888 | 0.849 | 0.35 | 0.854 | 0.815 | 0.846 | 0.88 | 0.926
4 | IA-LM | 0.299 | 0.321 | 0.278 | 0.0319 | 0.0054 | – | – | – | – | – | – | – | – | – | – | – | – | – | – | –
5 | LC-2-ad | 0.558 | – | 0.486 | 0.0865 | 0.104 | 0.255 | 0.271 | 0.255 | 0.252 | 0.185 | 1.11 | 1.23 | 0.693 | 0.611 | 0.204 | 0.984 | 0.914 | 0.773 | 0.733 | 0.361
6 | LCLC-97TM1 | 0.177 | 0.178 | 0.195 | 0.132 | 0.207 | 0.189 | 0.17 | 0.16 | 0.166 | 0.0769 | 0.806 | 0.796 | 0.67 | 0.341 | 0.0891 | 0.734 | 0.563 | 0.788 | 0.761 | 0.532
7 | LCLC-103H | 0.529 | 0.509 | 0.549 | 0.511 | 0.383 | 0.46 | 0.483 | 0.47 | 0.559 | 0.317 | 0.912 | 1.03 | 0.876 | 0.814 | 0.269 | 0.948 | 0.875 | 1.02 | 0.911 | 0.969
8 | LK-2 | – | 0.559 | 0.295 | 0.251 | 0.245 | 0.285 | 0.324 | 0.221 | 0.365 | 0.28 | 0.174 | 0.175 | 0.226 | 0.16 | 0.151 | 0.183 | 0.23 | 0.231 | 0.189 | 0.164
9 | LOU-NH91 | 0.509 | 0.479 | 0.395 | 0.339 | 0.317 | 0.396 | 0.446 | 0.361 | 0.281 | 0.284 | 0.391 | 0.402 | 0.322 | 0.299 | 0.228 | 0.351 | 0.367 | 0.345 | 0.265 | 0.294
10 | LU99A | 0.385 | – | 0.35 | 0.328 | 0.169 | 0.158 | 0.167 | 0.198 | 0.174 | 0.169 | 0.254 | 0.235 | 0.192 | 0.197 | 0.161 | 0.268 | 0.243 | 0.259 | 0.229 | 0.246
11 | LXF-289 | 0.829 | 0.81 | 0.717 | 0.07 | 0.0457 | 0.884 | 0.884 | 0.962 | 0.442 | 0.0884 | 0.658 | 0.755 | 0.672 | 0.33 | 0.104 | 0.707 | 0.649 | 0.594 | 0.619 | 0.662
12 | NCI-H23 | – | 0.407 | 0.381 | 0.144 | 0.131 | 0.556 | – | 0.595 | 0.23 | 0.143 | 0.183 | 0.206 | 0.197 | 0.212 | 0.205 | 0.21 | 0.193 | 0.195 | 0.185 | 0.191
13 | NCI-H322M | 0.49 | – | 0.523 | 0.459 | 0.554 | 0.642 | 0.403 | 0.617 | 0.4 | 0.335 | 0.8 | 1.06 | 0.639 | 0.326 | 0.246 | 0.949 | 0.809 | – | 0.758 | 0.39
14 | NCI-H522 | – | – | – | – | – | 1.29 | 1.04 | 1.08 | 0.442 | 0.35 | 0.957 | 0.995 | 1.15 | 0.845 | 0.507 | 1.17 | 1.1 | 1.07 | – | 1.01
15 | NCI-H727 | 0.34 | 0.345 | 0.329 | 0.192 | 0.106 | – | – | – | – | – | 0.467 | – | 0.264 | 0.252 | 0.208 | 0.278 | 0.344 | 0.347 | 0.316 | 0.342
16 | NCI-H1299 | 0.722 | 0.776 | 0.511 | 0.0727 | 0.0315 | – | – | – | – | – | – | – | – | – | – | – | – | – | – | –
17 | NCI-H1623 | – | – | – | – | – | – | – | – | – | – | 0.579 | 0.493 | 0.48 | 0.494 | 0.305 | 0.561 | 0.437 | 0.662 | 0.571 | 0.547
18 | NCI-H1648 | – | – | – | – | – | 0.62 | 0.592 | 0.753 | 0.468 | 0.334 | – | – | – | – | – | – | – | – | – | –
19 | NCI-H1703 | 0.259 | 0.208 | 0.146 | 0.128 | 0.121 | – | – | – | – | – | – | – | – | – | – | – | – | – | – | –
20 | NCI-H2342 | – | – | – | – | – | 0.801 | 0.783 | 0.739 | 0.752 | 0.712 | 0.543 | 0.699 | 0.705 | 0.546 | 0.536 | 0.592 | 0.87 | 0.777 | 0.644 | 0.716
21 | SW 900 | – | – | – | – | – | 0.476 | 0.485 | 0.224 | 0.169 | 0.152 | 0.164 | 0.136 | 0.159 | 0.168 | 0.11 | 0.164 | 0.153 | 0.179 | 0.131 | 0.148

— the supplement of paper PMC10307832
